Results on 5 compounds are retold here after patent US9809623B2, “α4β7 peptide monomer and dimer antagonists” (Protagonist Therapeutics, Inc., priority 2014, dated 2017).

pIC50: −log10 of the molar value. Numbered stars: 1 amine (or outer) side, 2 acyl side, 3 side chain; on linkers, the order of the positions; unused ones are H or OH. Bridge positions count the residues as written; N and C are the ends. Square brackets hold non-standard residues; d marks the D form. Peptide text beside a SMILES is read from it. I, II: the chains in the order shown. Phe(4-tBu) = CC(C)(C)c1ccc(C[C@H](N)C(=O)O)cc1; Diglycolyl = O=C(COCC(=O)[*:2])[*:1]; NMeR = CN[C@@H](CCCNC(=N)N)C(=O)O; β3hE = N[C@@H](CCC(=O)O)CC(=O)O; NMeK = CN[C@@H](CCCCN)C(=O)O; Pen = CC(C)(S)[C@H](N)C(=O)O; dNMeK = CN[C@H](CCCCN)C(=O)O Where only a bound is given, the exact number is not on record here.

In one data set the target is T1, α4β7 (Mus musculus, UniProt P26011+Q00651).
T1 construct: host or cells: TK1 mouse T cells
As to the kind of experiment: α4β7 Cell Adhesion Assay (Mouse), TK1 cells. The data set is classed as cell-based. Particulars: Table 4-B; read-out: Cell Adhesion α4β7 Mouse IC50. Put shortly:
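Mouse TK1 cells in DMEM with 0.1% BSA, 10 mM HEPES pH 7 and 1 mM MnCl2 were allowed to adhere for 30-45 min at 37 °C to plates coated with recombinant human MAdCAM-1 Fc (200 ng/well) in the presence of serially diluted peptides. Adherent cells were quantified by MTT absorbance at 570 nm, with no-cell background subtracted for dose response.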

A short description of data set [1]: Simulated Gastric Fluid (SGF) Assay. The data set is classed as in vitro ADME. Particulars: pig, simulated gastric fluid (SGF) with porcine pepsin, pH 2; Table 4-C, t1/2. The gist of the method:
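Peptides at 20 μM final in simulated gastric fluid (NaCl, porcine pepsin, HCl; pH 2) at 37° C with shaking. Samples taken at 0, 15, 30 and 60 min, quenched in acetonitrile/0.1% formic acid and quantified by LC-MS/MS against internal standard, relative to time 0. Half-life from first-order exponential decay fit.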

A short description of another data set: Plasma Stability Assay. The data set is classed as in vitro ADME. The settings on record: rat, Table 4-C, t1/2. Put shortly:
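Rat plasma at 37° C with gentle shaking, peptide added from 10 mM stock; samples taken at 0, 10, 30, 45, 60, 120 and 180 min and quenched 1:4 with acetonitrile/0.1% formic acid. After centrifugation, supernatants were mixed with internal standard peptide (1 ug/mL) and analysed by LC-MS.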

Data set [2] is described as follows: Dithiothreitol (DTT) Redox Stability Assay. The data set is classed as physicochemical. Particulars: Table 4-C, t1/2, 0.5 mM DTT. The gist of the method: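 Peptide at 50 μM final in 100 mM Tris-Cl pH 7.5 was exposed to 0.5 mM DTT at room temperature. Aliquots taken at 20, 40, 80 and 120 min were quenched with acetic acid and analysed by reverse-phase HPLC at 220 nm for remaining oxidized parent. Half-lives were obtained by first-order exponential decay fit.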

As usually defined, the pIC50 is −log10 of the IC50, conventionally taken in molar units. What is called half-life is how long it takes for the measured level to halve. A high value points to slow decline.

T1 sequence (Q00651 34-1039 limits assumed): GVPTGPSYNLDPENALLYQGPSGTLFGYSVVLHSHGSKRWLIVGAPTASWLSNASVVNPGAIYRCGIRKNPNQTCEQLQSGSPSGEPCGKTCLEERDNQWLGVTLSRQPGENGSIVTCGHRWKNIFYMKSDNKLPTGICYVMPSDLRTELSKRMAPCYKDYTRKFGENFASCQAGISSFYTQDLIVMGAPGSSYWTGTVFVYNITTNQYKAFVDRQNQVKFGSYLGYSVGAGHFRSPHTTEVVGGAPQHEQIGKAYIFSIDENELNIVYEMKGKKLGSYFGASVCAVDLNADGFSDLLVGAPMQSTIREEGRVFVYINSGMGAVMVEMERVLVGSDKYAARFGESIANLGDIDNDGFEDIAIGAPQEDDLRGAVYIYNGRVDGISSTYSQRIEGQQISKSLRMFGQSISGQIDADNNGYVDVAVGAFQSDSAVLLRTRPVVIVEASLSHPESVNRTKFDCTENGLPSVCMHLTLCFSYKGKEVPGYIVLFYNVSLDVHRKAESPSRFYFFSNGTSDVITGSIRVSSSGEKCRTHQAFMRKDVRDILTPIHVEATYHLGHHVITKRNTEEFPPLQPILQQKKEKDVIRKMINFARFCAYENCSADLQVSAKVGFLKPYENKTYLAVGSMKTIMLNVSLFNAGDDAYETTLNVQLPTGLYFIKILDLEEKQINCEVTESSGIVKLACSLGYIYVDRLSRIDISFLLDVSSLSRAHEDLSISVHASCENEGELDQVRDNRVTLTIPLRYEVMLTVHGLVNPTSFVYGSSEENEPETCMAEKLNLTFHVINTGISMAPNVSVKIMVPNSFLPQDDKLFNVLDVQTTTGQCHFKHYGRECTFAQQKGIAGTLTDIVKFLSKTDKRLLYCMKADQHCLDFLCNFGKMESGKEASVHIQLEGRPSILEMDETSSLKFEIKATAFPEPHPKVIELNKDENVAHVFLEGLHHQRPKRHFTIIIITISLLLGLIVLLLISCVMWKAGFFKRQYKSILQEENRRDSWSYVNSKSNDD
T1 sequence (P26011 20-806): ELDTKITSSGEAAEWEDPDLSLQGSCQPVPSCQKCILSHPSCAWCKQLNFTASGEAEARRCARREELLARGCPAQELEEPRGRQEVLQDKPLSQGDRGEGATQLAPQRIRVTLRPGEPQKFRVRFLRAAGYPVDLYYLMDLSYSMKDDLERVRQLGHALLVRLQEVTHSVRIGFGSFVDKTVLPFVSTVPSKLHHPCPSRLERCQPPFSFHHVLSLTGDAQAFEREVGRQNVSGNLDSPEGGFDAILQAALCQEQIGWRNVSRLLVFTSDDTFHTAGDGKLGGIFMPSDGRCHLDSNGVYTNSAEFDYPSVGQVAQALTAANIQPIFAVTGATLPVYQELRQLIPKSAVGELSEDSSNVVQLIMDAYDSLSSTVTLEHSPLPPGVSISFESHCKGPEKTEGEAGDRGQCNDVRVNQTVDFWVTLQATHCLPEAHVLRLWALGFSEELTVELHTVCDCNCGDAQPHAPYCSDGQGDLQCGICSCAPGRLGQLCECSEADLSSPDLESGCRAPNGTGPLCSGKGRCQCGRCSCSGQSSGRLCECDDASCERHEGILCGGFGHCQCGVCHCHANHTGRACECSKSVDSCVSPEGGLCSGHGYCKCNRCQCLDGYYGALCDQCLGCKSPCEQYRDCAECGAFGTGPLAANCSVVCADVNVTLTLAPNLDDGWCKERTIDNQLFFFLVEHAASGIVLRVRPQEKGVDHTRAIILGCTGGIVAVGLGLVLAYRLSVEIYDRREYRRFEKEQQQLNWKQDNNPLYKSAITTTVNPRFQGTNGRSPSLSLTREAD

For `CC(=O)N[C@@H]1C(=O)N(C)[C@@H](CCCNC(=N)N)C(=O)N[C@@H](CO)C(=O)N[C@@H](CC(=O)O)C(=O)N[C@@H]([C@@H](C)O)C(=O)N[C@@H](CC(C)C)C(=O)N[C@H](C(=O)N[C@@H](Cc2c[nH]c3ccccc23)C(=O)N[C@@H](CCC(=O)O)C(=O)N(C)[C@@H](CCCCNC(=O)COCC(=O)NCCCC[C@@H](C(N)=O)N(C)C(=O)[C@H](CCC(=O)O)NC(=O)[C@H](Cc2c[nH]c3ccccc23)NC(=O)[C@H]2NC(=O)[C@H](CC(C)C)NC(=O)[C@H]([C@@H](C)O)NC(=O)[C@H](CC(=O)O)NC(=O)[C@H](CO)NC(=O)[C@H](CCCNC(=N)N)N(C)C(=O)[C@@H](NC(C)=O)C(C)(C)SSC2(C)C)C(N)=O)C(C)(C)SSC1(C)C` [compound 215, [Ac-Pen-(N-Me-Arg)-Ser-Asp-Thr-Leu-Pen-Trp-Glu-(N-Me-Lys)-NH2]2-DIG] (I: Ac-[Pen][NMeR]SDTL[Pen]WE[NMeK]-NH2 / II: Ac-[Pen][NMeR]SDTL[Pen]WE[NMeK]-NH2; disulfide I:1-I:7, II:1-II:7 (inferred); linker I:10-II:10 via Diglycolyl (inferred)), the pIC50 on α4β7 is 9.05. Moreover, the half-life at 20 μM (in data set [1]; in the data set “Plasma Stability Assay”) was over 6 h in each case. Further, the “DTT Min” value in data set [2] is over 120 min.

With `CC(=O)N[C@@H]1C(=O)N(C)[C@@H](CCCNC(=N)N)C(=O)N[C@@H](CO)C(=O)N[C@@H](CC(=O)O)C(=O)N[C@@H]([C@@H](C)O)C(=O)N[C@@H](CC(C)C)C(=O)N[C@H](C(=O)N[C@@H](Cc2ccc(C(C)(C)C)cc2)C(=O)N[C@@H](CCC(=O)O)CC(=O)N[C@H](CCCCNC(=O)COCC(=O)NCCCC[C@@H](NC(=O)C[C@H](CCC(=O)O)NC(=O)[C@H](Cc2ccc(C(C)(C)C)cc2)NC(=O)[C@H]2NC(=O)[C@H](CC(C)C)NC(=O)[C@H]([C@@H](C)O)NC(=O)[C@H](CC(=O)O)NC(=O)[C@H](CO)NC(=O)[C@H](CCCNC(=N)N)N(C)C(=O)[C@@H](NC(C)=O)C(C)(C)SSC2(C)C)C(N)=O)C(N)=O)C(C)(C)SSC1(C)C` [compound 218, [Ac-Pen-(N-Me-Arg)-Ser-Asp-Thr-Leu-Pen-Phe(4-tBu)-(β-homoGlu)-(D-Lys)-NH2]2-DIG] (I: Ac-[Pen][NMeR]SDTL[Pen][Phe(4-tBu)][β3hE][dK]-NH2 / II: Ac-[Pen][NMeR]SDTL[Pen][Phe(4-tBu)][β3hE][dK]-NH2; disulfide I:1-I:7, II:1-II:7; linker I:10-II:10 via Diglycolyl), the pIC50 at α4β7 was 9.30. Moreover, the half-life at 20 μM (in data set [1]; in “Plasma Stability Assay”) was over 6 h each time. Also, in data set [2], the “DTT Min” value was over 120 min.

As to `CC(=O)N[C@@H]1C(=O)N(C)[C@@H](CCCNC(=N)N)C(=O)N[C@@H](CO)C(=O)N[C@@H](CC(=O)O)C(=O)N[C@@H]([C@@H](C)O)C(=O)N[C@@H](CC(C)C)C(=O)N[C@H](C(=O)N[C@@H](Cc2c[nH]c3ccccc23)C(=O)N[C@H](CCCCNC(=O)COCC(=O)NCCCC[C@@H](NC(=O)[C@H](Cc2c[nH]c3ccccc23)NC(=O)[C@H]2NC(=O)[C@H](CC(C)C)NC(=O)[C@H]([C@@H](C)O)NC(=O)[C@H](CC(=O)O)NC(=O)[C@H](CO)NC(=O)[C@H](CCCNC(=N)N)N(C)C(=O)[C@@H](NC(C)=O)C(C)(C)SSC2(C)C)C(N)=O)C(N)=O)C(C)(C)SSC1(C)C` [compound 209, (Ac-Pen-N-Me-R-S-D-T-L-Pen-W-k-NH2)2-DIG] (I: Ac-[Pen][NMeR]SDTL[Pen]W[dK]-NH2 / II: Ac-[Pen][NMeR]SDTL[Pen]W[dK]-NH2; disulfide I:1-I:7, II:1-II:7 (inferred); linker I:9-II:9 via Diglycolyl (inferred)), at α4β7, the pIC50 is 7.29. Also, the half-life at 20 μM (in data set [1]; in “Plasma Stability Assay”) was over 3 h in each case. The “DTT Min” value in data set [2] is over 120 min.

As for `CC(=O)N[C@@H]1C(=O)N(C)[C@@H](CCCNC(=N)N)C(=O)N[C@@H](CO)C(=O)N[C@@H](CC(=O)O)C(=O)N[C@@H]([C@@H](C)O)C(=O)N[C@@H](CC(C)C)C(=O)N[C@H](C(=O)N[C@@H](Cc2c[nH]c3ccccc23)C(=O)N[C@@H](CCC(=O)O)C(=O)N(C)[C@H](CCCCNC(=O)COCC(=O)NCCCC[C@H](C(N)=O)N(C)C(=O)[C@H](CCC(=O)O)NC(=O)[C@H](Cc2c[nH]c3ccccc23)NC(=O)[C@H]2NC(=O)[C@H](CC(C)C)NC(=O)[C@H]([C@@H](C)O)NC(=O)[C@H](CC(=O)O)NC(=O)[C@H](CO)NC(=O)[C@H](CCCNC(=N)N)N(C)C(=O)[C@@H](NC(C)=O)C(C)(C)SSC2(C)C)C(N)=O)C(C)(C)SSC1(C)C` [compound 214, [Ac-Pen-(N-Me-Arg)-Ser-Asp-Thr-Leu-Pen-Trp-Glu-(N-Me-D-Lys)-NH2]2-DIG] (I: Ac-[Pen][NMeR]SDTL[Pen]WE[dNMeK]-NH2 / II: Ac-[Pen][NMeR]SDTL[Pen]WE[dNMeK]-NH2; disulfide I:1-I:7, II:1-II:7 (inferred); linker I:10-II:10 via Diglycolyl (inferred)), the negative logarithm of the IC50 (pIC50) at α4β7 is 8.96. In addition, the half-life at 20 μM (in data set [1]; in the data set “Plasma Stability Assay”) was over 6 h in each case. In addition, the “DTT Min” value in data set [2] was over 120 min.

As for `CC(=O)N[C@@H]1C(=O)N(C)[C@@H](CCCNC(=N)N)C(=O)N[C@@H](CO)C(=O)N[C@@H](CC(=O)O)C(=O)N[C@@H]([C@@H](C)O)C(=O)N[C@@H](CC(C)C)C(=O)N[C@H](C(=O)N[C@@H](Cc2c[nH]c3ccccc23)C(=O)N[C@@H](CCC(=O)O)C(=O)N[C@H](CCCCNC(=O)COCC(=O)NCCCC[C@@H](NC(=O)[C@H](CCC(=O)O)NC(=O)[C@H](Cc2c[nH]c3ccccc23)NC(=O)[C@H]2NC(=O)[C@H](CC(C)C)NC(=O)[C@H]([C@@H](C)O)NC(=O)[C@H](CC(=O)O)NC(=O)[C@H](CO)NC(=O)[C@H](CCCNC(=N)N)N(C)C(=O)[C@@H](NC(C)=O)C(C)(C)SSC2(C)C)C(N)=O)C(N)=O)C(C)(C)SSC1(C)C` [compound 217, (Ac-Pen-N-Me-R-S-D-T-L-Pen-W-E-k-NH2)2-DIG] (I: Ac-[Pen][NMeR]SDTL[Pen]WE[dK]-NH2 / II: Ac-[Pen][NMeR]SDTL[Pen]WE[dK]-NH2; disulfide I:1-I:7, II:1-II:7 (inferred); linker I:10-II:10 via Diglycolyl (inferred)), the pIC50 at α4β7 was 8.92. Further, the half-life at 20 μM was over 6 h in data set [1] and over 2 h in “Plasma Stability Assay”. In addition, the “DTT Min” value in data set [2] was over 120 min.
